We go through two compounds from patent US10947196B2, “Beta adrenergic agonist and methods of using the same” (CURASEN THERAPEUTICS, INC., priority 2019, dated 2021).

This data set in a line: Microsomal stability (rat). Format: in vitro ADME. The note with it: liver microsomes 0.5 mg/mL; method gives CLint in μL/min/mg protein. The protocol: The master solution was prepared as follows.
With NADPH: 10 μL of 20 mg/mL liver microsomes and 40 μL of 10 mM NADPH were added to the incubations. The final concentrations of microsomes and NADPH were 0.5 mg/mL and 1 mM, respectively.
Without NADPH: 10 μL of 20 mg/mL liver microsomes and 40 μL of ultra-pure H2O were added to the incubations. The final concentration of microsomes was 0.5 mg/mL.
The reaction was started with the addition of 4 μL of 3, 10, 30 and 100 μM test compound solution or control compound solution at the final concentration of 0.03, 0.1, 0.3 and 1 μM and carried out at 37° C.
Aliquots of 50 μL were taken from the reaction solution at 0, 15, 30, 45 and 60 min. The reaction was stopped by the addition of 4 volumes of cold acetonitrile with IS (100 nM alprazolam, 200 nM labetalol, 200 nM caffeine and 2 μM ketoprofen). Samples were centrifuged at 3, 220 g for 40 minutes. Aliquot of 100 μL of the supernatant was mixed with 100 μL of ultra-pure H2O and then used for LC-MS/MS analysis.
Peak areas were determined from extracted ion chromatograms. The slope value, k, was determined by linear regression of the natural logarithm of the remaining percentage of the parent drug vs. incubation time curve.
The in vitro half-life (in vitro t1/2) was determined from the slope value: in vitro t1/2=−(0.693/k) […]
In general terms: Liver microsomes are vesicles of endoplasmic reticulum, rich in cytochrome P450 enzymes.

For the compound `CC(C)(C)NC[C@H](O)c1cccc(C(F)(F)F)n1` [Compound 03-3], the Microsomal stability, Rat is 3.48 µL/min/mg protein.

In the case of `CC(C)(C)NC[C@H](O)c1cccc(C#N)n1` [Compound 03-5, (S)-6-(2-(tert-butylamino)-1-hydroxyethyl)picolinonitrile], the Microsomal stability, Rat was 2.53 µL/min/mg protein.
